Broadly, the fraction unbound is the share of the substance not bound to proteins or other matrix. High values mean much free substance, low ones little free substance. As usually defined, the EC50 is the concentration at which the effect is half-maximal. By CC50 is commonly meant the concentration that lowers cell viability or growth by half. High values mean better tolerance by the cells, low ones harm at low concentration. A word on the Ki: it is a measure of affinity in units of concentration, obtained from inhibition or displacement.

Series [1] in a line: Plasma protein binding in CD1 mouse after 5 hrs.
In a further series the test system is Plasmodium falciparum. The series can be described thus: Antimalarial activity against erythrocytic stages of Plasmodium falciparum 3D7 infected in human O positive RBC after 48 hrs by SYBR-green assay. It is filed as functional, organism-based. To be noted: 3D7, 48 h.
The test system of the next series is MRC5. The series can be described thus: Cytotoxicity against human MRC5 cells. In kind it is cell-based.
For the next series, the target named is T1, Thymidylate kinase (Plasmodium falciparum (isolate 3D7), UniProt Q8I4S1).
T1 sequence (Q8I4S1 whole entry): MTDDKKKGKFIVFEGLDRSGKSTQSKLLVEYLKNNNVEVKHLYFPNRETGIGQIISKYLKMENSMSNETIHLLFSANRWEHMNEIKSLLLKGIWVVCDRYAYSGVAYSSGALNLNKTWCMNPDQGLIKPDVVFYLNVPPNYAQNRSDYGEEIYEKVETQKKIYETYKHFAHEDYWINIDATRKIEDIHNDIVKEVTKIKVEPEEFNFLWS
The series can be described thus: Inhibition of recombinant Plasmodium falciparum TMPK using TMP as substrate by pyruvate kinase and lactate dehydrogenase enzyme coupled assay.

Compound `Cc1cn([C@@H]2C[C@H](O)[C@@H](CNC(=O)Nc3ccc(-c4ccccc4)cc3)O2)c(=O)[nH]c1=O` showed a fraction unbound at 5 h in series [1] of 0.08. In the series with Plasmodium falciparum, this compound showed an EC50 of 0.29 µM.

`Cc1cn([C@@H]2C[C@H](O)[C@@H](CNC(=S)Nc3ccc(Cl)c(C(F)(F)F)c3)O2)c(=O)[nH]c1=O` had a CC50 with MRC5 above 50 µM. In addition, in the series with Plasmodium falciparum, the EC50 stood at 2.3 µM. Besides, at Thymidylate kinase, the Ki was 31 µM.

Consider `Cc1cn([C@@H]2C[C@H](O)[C@@H](CNC(=O)Nc3ccc(Br)cc3)O2)c(=O)[nH]c1=O`, for which the CC50 with MRC5 is above 50 µM. Besides, the midpoint of the response in the series with Plasmodium falciparum, the EC50, lay at 1.5 µM. The Ki at Thymidylate kinase was above 1000 µM.

`Cc1cn([C@@H]2C[C@H](O)[C@@H](CNC(=O)Nc3ccc(Cl)cc3)O2)c(=O)[nH]c1=O` returned a CC50 in the series on MRC5 above 50 µM. The compound also registered an EC50 with Plasmodium falciparum of 2.6 µM. Besides, the Ki at Thymidylate kinase is 114 µM.

In series [1], `Cc1cn([C@@H]2C[C@H](O)[C@@H](CNC(=O)Nc3ccc(OCc4ccccc4Cl)cc3)O2)c(=O)[nH]c1=O` had a fraction unbound at 5 h of 0.059. In the series on MRC5, this compound returned a CC50 of 29 µM. Besides, in the series with Plasmodium falciparum, the midpoint of the response, the EC50, lay at 0.028 µM.

For the compound `Cc1cn([C@@H]2C[C@H](O)[C@@H](CNC(=O)Nc3ccc(C(C)(C)C)cc3)O2)c(=O)[nH]c1=O`, the CC50 with MRC5 is above 50 µM. The EC50 in the series with Plasmodium falciparum was 2.9 µM. Besides, the inhibitory constant (Ki) at Thymidylate kinase worked out at 167 µM.

Regarding `Cc1cn([C@@H]2C[C@H](O)[C@@H](CNC(=O)Nc3ccc(OCc4ccccc4)cc3)O2)c(=O)[nH]c1=O`, the fraction unbound at 5 h in series [1] was 0.188. In the series on Plasmodium falciparum, this compound displayed an EC50 of 0.24 µM.

Consider `Cc1cn([C@@H]2C[C@H](O)[C@@H](CNC(=O)Nc3cccc(Cl)c3)O2)c(=O)[nH]c1=O`, for which the CC50 with MRC5 was above 50 µM. In the series with Plasmodium falciparum, the EC50 came to 4.8 µM. Besides, the Ki on Thymidylate kinase is 106 µM.

`Cc1cn([C@@H]2C[C@H](O)[C@@H](CNC(=O)Nc3ccc(Oc4ccccc4)cc3)O2)c(=O)[nH]c1=O`: in series [1], the fraction unbound at 5 h is 0.095. In addition, in the series with MRC5, the CC50 amounted to 44 µM. In addition, in the series on Plasmodium falciparum, the EC50 came out at 0.24 µM.

Consider `Cc1cn([C@@H]2C[C@H](O)[C@@H](CNC(=O)Nc3cccc(COc4ccccc4)c3)O2)c(=O)[nH]c1=O`, for which the CC50 in the series with MRC5 is above 50 µM. Further, in the series with Plasmodium falciparum, the response was half-maximal at 1.8 µM (EC50).

Consider `Cc1ccc2nc(-c3ccc(NC(=O)NC[C@H]4O[C@H](n5cc(C)c(=O)[nH]c5=O)C[C@@H]4O)cc3)sc2c1`, for which, in the series with MRC5, the CC50 is above 50 µM. In the series with Plasmodium falciparum, this compound registered an EC50 of 4.6 µM.

On to `Cc1cn([C@H]2C[C@H](O)[C@@H](CNC(=O)Nc3ccc(N4CCCCC4)cc3)O2)c(=O)[nH]c1=O`, for which, in the series with MRC5, the CC50 is above 50 µM. Further, in the series on Plasmodium falciparum, the EC50 is 4.8 µM.

With `Cc1cn([C@@H]2C[C@H](O)[C@@H](CNC(=O)Nc3ccc(N4CCCCC4)cc3)O2)c(=O)[nH]c1=O`, the fraction unbound at 5 h in series [1] is 0.477. In the series with Plasmodium falciparum, this compound had an EC50 of 0.34 µM.

The compound `Cc1cn([C@@H]2C[C@H](O)[C@@H](CNC(=S)Nc3ccc(Cl)cc3)O2)c(=O)[nH]c1=O` registered a CC50 in the series with MRC5 above 50 µM. Further, in the series with Plasmodium falciparum, the EC50 amounted to 13 µM. Further, on Thymidylate kinase, the Ki was found to be 90 µM.

For `Cc1cn([C@H]2C[C@H](O)[C@@H](CNC(=O)Nc3ccc(OCc4ccccc4)cc3)O2)c(=O)[nH]c1=O`, the CC50 with MRC5 is above 50 µM. Further, the EC50 in the series with Plasmodium falciparum is 4 µM.

`Cc1cn([C@@H]2C[C@H](O)[C@@H](CNC(=O)Nc3ccc(-c4ccc(C(F)(F)F)nc4)cc3)O2)c(=O)[nH]c1=O`: the CC50 with MRC5 is above 50 µM. This compound also registered an EC50 in the series on Plasmodium falciparum of 1.4 µM.

Compound `Cc1cn([C@@H]2C[C@H](O)[C@@H](CNC(=O)Nc3ccc(OC4CCOCC4)cc3)O2)c(=O)[nH]c1=O` showed a CC50 in the series with MRC5 above 50 µM. This compound also came in with an EC50 in the series on Plasmodium falciparum of 1.3 µM.

With `Cc1cn([C@@H]2C[C@H](O)[C@@H](CNC(=O)Nc3ccc(Cl)c(C(F)(F)F)c3)O2)c(=O)[nH]c1=O`, in the series with MRC5, the CC50 is above 50 µM. Further, the EC50 in the series with Plasmodium falciparum was 9 µM. In addition, the Ki on Thymidylate kinase was 88 µM.

On to `Cc1cn([C@H]2C[C@H](O)[C@@H](CNC(=O)Nc3ccc(-c4ccccc4)cc3)O2)c(=O)[nH]c1=O`, for which, in the series with MRC5, the CC50 is above 50 µM. The compound further displayed an EC50 with Plasmodium falciparum of 3.3 µM.
